Usually IC50 stands for the midpoint of a concentration-inhibition curve.

In the assay the target is Tachykinin NK1 receptor (Bos taurus). The experiment in a line: Binding affinity against NK1 receptor by displacement of [3H]SP from bovine retina membranes.
Consider `Cc1cc(C)cc(C(=O)N2CC[C@H](NCc3ccnc4ccccc34)C[C@H]2Cc2ccc(Cl)cc2)c1` [{(2R,4S)-2-(4-Chloro-benzyl)-4-[(quinolin-4-ylmethyl)-amino]-piperidin-1-yl}-(3,5-dimethyl-phenyl)-methanone], for which the IC50 came to 13 nM. That is a double-digit nanomolar value.
For `Cc1cc(C)cc(C(=O)N2CC[C@H](NCc3ccnc4ccccc34)C[C@H]2Cc2cc(Br)cc(Br)c2)c1` [{(2R,4S)-2-(3,5-Dibromo-benzyl)-4-[(quinolin-4-ylmethyl)-amino]-piperidin-1-yl}-(3,5-dimethyl-phenyl)-methanone] the value was 52 nM; for `Cc1cc(C)cc(C(=O)N2CC[C@H](NCc3ccnc4ccccc34)C[C@H]2Cc2ccc(C(N)=O)cc2)c1` [4-{(2R,4S)-1-(3,5-Dimethyl-benzoyl)-4-[(quinolin-4-ylmethyl)-amino]-piperidin-2-ylmethyl}-benzamide], 100 nM.
Under `COc1ccc(C[C@@H]2C[C@@H](NCc3ccnc4ccccc34)CCN2C(=O)c2cc(C)cc(C)c2)cc1` [(3,5-Dimethyl-phenyl)-{(2R,4S)-2-(4-methoxy-benzyl)-4-[(quinolin-4-ylmethyl)-amino]-piperidin-1-yl}-methanone] stands 14 nM; under `COc1cccc(C[C@@H]2C[C@@H](NCc3ccnc4ccccc34)CCN2C(=O)c2cc(C)cc(C)c2)c1` [(3,5-Dimethyl-phenyl)-{(2R,4S)-2-(3-methoxy-benzyl)-4-[(quinolin-4-ylmethyl)-amino]-piperidin-1-yl}-methanone], 27 nM.
Compound `Cc1cc(C)cc(C(=O)N2CC[C@H](NCc3ccnc4ccccc34)C[C@H]2Cc2ccc3ccccc3c2)c1` [(3,5-Dimethyl-phenyl)-{(2R,4S)-2-naphthalen-2-ylmethyl-4-[(quinolin-4-ylmethyl)-amino]-piperidin-1-yl}-methanone] gave an IC50 of 14 nM.
On to `Cc1cc(C)cc(C(=O)N2CC[C@H](NCc3ccnc4ccccc34)C[C@H]2Cc2ccc(Cl)c(Cl)c2)c1` [{(2R,4S)-2-(3,4-Dichloro-benzyl)-4-[(quinolin-4-ylmethyl)-amino]-piperidin-1-yl}-(3,5-dimethyl-phenyl)-methanone], for which the half-inhibitory concentration (IC50) came to 9 nM.
For `Cc1cc(C)cc(C(=O)N2CC[C@H](NCc3ccnc4ccccc34)C[C@H]2Cc2ccc(C(F)(F)F)cc2)c1` [(3,5-Dimethyl-phenyl)-[(2R,4S)-4-[(quinolin-4-ylmethyl)-amino]-2-(4-trifluoromethyl-benzyl)-piperidin-1-yl]-methanone] the value was 11 nM; for `Cc1cc(C)cc(C(=O)N2CC[C@H](NCc3ccnc4ccccc34)C[C@H]2Cc2ccc(Cl)cc2Cl)c1` [{(2R,4S)-2-(2,4-Dichloro-benzyl)-4-[(quinolin-4-ylmethyl)-amino]-piperidin-1-yl}-(3,5-dimethyl-phenyl)-methanone], 600 nM; for `Cc1cc(C)cc(C(=O)N2CC[C@H](NCc3ccnc4ccccc34)C[C@H]2CCc2ccccc2)c1` [(3,5-Dimethyl-phenyl)-{(2R,4S)-2-phenethyl-4-[(quinolin-4-ylmethyl)-amino]-piperidin-1-yl}-methanone], 190 nM.
For `Cc1cc(C)cc(C(=O)N2CC[C@H](NCc3ccnc4ccccc34)C[C@H]2Cc2ccc(C#N)cc2)c1` [4-{(2R,4S)-1-(3,5-Dimethyl-benzoyl)-4-[(quinolin-4-ylmethyl)-amino]-piperidin-2-ylmethyl}-benzonitrile] the value was 21 nM; for `Cc1cc(C)cc(C(=O)N2CC[C@H](NCc3ccnc4ccccc34)C[C@H]2Cc2ccc([N+](=O)[O-])cc2)c1` [(3,5-Dimethyl-phenyl)-{(2R,4S)-2-(4-nitro-benzyl)-4-[(quinolin-4-ylmethyl)-amino]-piperidin-1-yl}-methanone], 3 nM.
